Reference: patent US7432260B2, “Pyrimidine compounds” (Cyclacel Limted, priority 2002, dated 2008)
Like-named read-outs stand apart in the source and are kept apart here.

Columns and labels:
MCF-7 = experiment: 72-h MTT cytotoxicity assay MCF-7; assay type: cell-based; conditions: Homo sapiens, MCF7, 72 h; Table 5; Breast
Procedure: (§1) MTT cytotoxicity assay. […] Standard 72-h MTT (thiazolyl blue; 3-[4,5-dimethylthiazol-2-yl]-2,5-diphenyltetrazolium bromide) assays were performed (Haselsberger, K.; Peterson, D. C.; Thomas, D. G.; Darling, J. L. Anti Cancer Drugs 1996, 7, 331-8; Loveland, B. E.; Johns, T. G.; Mackay, I. R.; Vaillant, F.; Wang, Z. X.; Hertzog, P. J. Biochemistry International 1992, 27, 501-10). In short: cells were seeded into 96-well plates according to doubling time and incubated overnight at 37° C. Test compounds were made up in DMSO and a 1/3 dilution series prepared in 100 μL cell media, added to cells (in triplicates) and incubated for 72 ho at 37° C. MTT was made up as a stock of 5 mg/mL in cell media and filter-sterilised. Media was removed from cells followed by a wash with 200 μL PBS.
(§2) MTT solution was then added at 20 μL per well and incubated in the dark at 37° C. for 4 h. MTT solution was removed and cells again washed with 200 μL PBS. MTT dye was solubilised with 200 μL per well of DMSO with agitation.

SJSA-1 = experiment: 72-h MTT cytotoxicity assay SJSA-1; assay type: cell-based; conditions: Homo sapiens, SJSA-1, 72 h; Table 5; Osteogenic sarcoma
Procedure: as §1, §2

HCT-116 = experiment: 72-h MTT cytotoxicity assay HCT-116; assay type: cell-based; conditions: Homo sapiens, HCT-116, 72 h; Table 5; Colon
Procedure: as §1, §2

U2OS = experiment: 72-h MTT cytotoxicity assay U2OS; assay type: cell-based; conditions: Homo sapiens, Table 5, Bone osteosarcoma
Procedure: as §1, §2

all transformed cells = experiment: 72-h MTT cytotoxicity assay, summary over all transformed cells; assay type: cell-based; conditions: Homo sapiens
Procedure: as §1, §2

[1] = target: Akt/PKB (protein kinase B) (Homo sapiens, UniProt P31749); experiment: Kinase assay Akt/PKB; assay type: biochemical; conditions: Table 3 selectivity panel; read-out: Kinase specificity IC50 Akt/PKB
Procedure: (§3) Kinase assays. […] This was achieved by measurement of incorporation of radioactive phosphate from ATP into appropriate polypeptide substrates. Recombinant protein kinases and kinase complexes were produced or obtained commercially. Assays were performed using 96-well plates and appropriate assay buffers (typically 25 mM β-glycerophosphate, 20 mM MOPS, 5 mM EGTA, 1 mM DTT, 1 mM […], pH 7.4), into which were added 2-4 μg of active enzyme with appropriate substrates. The reactions were initiated by addition of Mg/ATP mix (15 mM MgCl2+100 μM ATP with 30-50 kBq per well of [γ-^32P]-ATP) and mixtures incubated as required at 30° C. Reactions were stopped on ice, followed by filtration through p81 filterplates or GF/C filterplates (Whatman Polyfiltronics, Kent, UK). After washing 3 times with 75 mM aq orthophosphoric acid, plates were dried, scintillant added and incorporated radioactivity measured in a scintillation counter (TopCount, Packard Instruments, Pangbourne, Berks, UK). Compounds for kinase assay were made-up as 10 mM stocks in DMSO and diluted into 10% DMSO inrassay buffer.

[2] = target: p70 ribosomal protein S6 kinase (Homo sapiens, UniProt P23443); experiment: Kinase assay p70/S6; assay type: biochemical; conditions: Table 3 selectivity panel; read-out: Kinase specificity IC50 p70/S6
Procedure: as §3

PLK-1 = PLK-1 (Homo sapiens, UniProt P53350); experiment: Kinase assay PLK-1; assay type: biochemical
Procedure: as §3

SKUT-1B = experiment: 72-h MTT cytotoxicity assay SKUT-1B; assay type: cell-based; conditions: Homo sapiens, Skut1B, Table 5, Leiomyosarcoma
Procedure: as §1, §2

CDK2/cyclin E = CDK2/cyclin E (Homo sapiens, UniProt P24941); experiment: Kinase assay CDK2/cyclin E; assay type: biochemical
In short: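 Enzyme + substrate in β-glycerophosphate/MOPS/EGTA/DTT buffer, pH 7.4 → Mg/ATP (100 μM ATP, γ-32P) start → 30° C incubation → ice stop → P81 or GF/C filtration, H3PO4 wash → scintillation count.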

[3] = target: T1, ARK-2: aurora kinase-2 (aurora A kinase) (Homo sapiens, UniProt O14965); experiment: Aurora-A (human) kinase assay; assay type: biochemical; conditions: Table 2; 15 μM ATP; read-out: Kinase Inhibition IC50 ARK-2
T1 construct: purchased
Procedure: Aurora-A (human) kinase assay. This was achieved by measurement of incorporation of radioactive phosphate from ATP into Kemptide substrate (LRRASLG), upon phosphorylation by commercially obtained aurora-A kinase. Assays were performed using 96-well plates and appropriate assay buffers (8 mM MOPS, 0.2 mM EDTA, pH 7.0), into which were added 5-10 ng of active enzyme with 200 μM substrate (Kemptide). […] Reactions were stopped by addition of 3% phosphoric acid, followed by filtration through p81 filterplates (Whatman Polyfiltronics, Kent, UK). After washing 5 times with 75 mM aq orthophosphoric acid and once in methanol, plates were dried, scintillant added and incorporated radioactivity measured in a scintillation counter (TopCount, Packard Instruments, Pangbourne, Berks, UK). Compounds for kinase assay were made up as 10 mM stocks in DMSO and diluted into 10% DMSO in assay buffer.

[4] = Table 5, average over transformed cell lines, read-out: 72-h MTT IC50 Average (all transformed cells)
[5] = Table 5, median over transformed cell lines, read-out: 72-h MTT IC50 Median (all transformed cells)
[6] = Table 2, read-out: Kinase Inhibition IC50 PLK-1
[7] = Table 3 selectivity panel, read-out: Kinase specificity IC50 PLK1
[8] = Table 2, read-out: Kinase Inhibition IC50 CDK2 cyclin E
[9] = Table 3 selectivity panel, read-out: Kinase specificity IC50 CDK2/E

Akt/PKB (protein kinase B), sequence (P31749 whole entry): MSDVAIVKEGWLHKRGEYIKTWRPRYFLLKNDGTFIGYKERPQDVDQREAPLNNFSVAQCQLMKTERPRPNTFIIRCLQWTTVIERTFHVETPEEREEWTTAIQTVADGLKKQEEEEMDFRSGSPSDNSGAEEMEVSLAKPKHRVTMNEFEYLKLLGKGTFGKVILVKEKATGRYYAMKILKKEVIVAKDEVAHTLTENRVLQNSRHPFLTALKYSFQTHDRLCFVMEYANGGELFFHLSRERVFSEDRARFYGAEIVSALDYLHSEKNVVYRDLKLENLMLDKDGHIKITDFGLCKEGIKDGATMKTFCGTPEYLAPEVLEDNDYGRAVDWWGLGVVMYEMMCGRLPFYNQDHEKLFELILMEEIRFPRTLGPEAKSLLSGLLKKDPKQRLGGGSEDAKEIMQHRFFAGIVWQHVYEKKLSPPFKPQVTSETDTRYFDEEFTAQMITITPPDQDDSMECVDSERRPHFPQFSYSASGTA
PLK-1, sequence (P53350 whole entry): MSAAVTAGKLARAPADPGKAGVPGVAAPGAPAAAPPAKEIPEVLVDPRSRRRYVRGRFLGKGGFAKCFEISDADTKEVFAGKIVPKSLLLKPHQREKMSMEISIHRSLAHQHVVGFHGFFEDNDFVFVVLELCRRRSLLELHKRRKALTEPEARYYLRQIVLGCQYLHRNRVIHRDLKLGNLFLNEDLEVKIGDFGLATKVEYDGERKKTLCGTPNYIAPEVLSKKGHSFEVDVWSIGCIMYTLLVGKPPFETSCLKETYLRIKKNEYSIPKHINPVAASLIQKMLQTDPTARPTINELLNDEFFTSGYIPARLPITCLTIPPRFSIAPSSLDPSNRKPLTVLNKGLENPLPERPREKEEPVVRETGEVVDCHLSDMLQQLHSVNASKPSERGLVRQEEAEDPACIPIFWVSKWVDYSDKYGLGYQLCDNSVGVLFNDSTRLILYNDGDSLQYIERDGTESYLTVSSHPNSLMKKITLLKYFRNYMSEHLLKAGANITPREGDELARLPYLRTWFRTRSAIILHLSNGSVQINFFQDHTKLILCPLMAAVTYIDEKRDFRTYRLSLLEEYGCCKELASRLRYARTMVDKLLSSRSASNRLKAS
p70 ribosomal protein S6 kinase, sequence (P23443 91-352 limits assumed): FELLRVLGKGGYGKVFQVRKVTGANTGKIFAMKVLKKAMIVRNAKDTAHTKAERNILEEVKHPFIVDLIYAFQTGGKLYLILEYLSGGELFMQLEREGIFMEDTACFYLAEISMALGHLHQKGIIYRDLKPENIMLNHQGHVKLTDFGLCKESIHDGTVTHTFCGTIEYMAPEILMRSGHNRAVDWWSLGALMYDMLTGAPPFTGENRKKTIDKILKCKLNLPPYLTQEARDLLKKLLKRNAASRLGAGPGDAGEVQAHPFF
T1 sequence (O14965 whole entry): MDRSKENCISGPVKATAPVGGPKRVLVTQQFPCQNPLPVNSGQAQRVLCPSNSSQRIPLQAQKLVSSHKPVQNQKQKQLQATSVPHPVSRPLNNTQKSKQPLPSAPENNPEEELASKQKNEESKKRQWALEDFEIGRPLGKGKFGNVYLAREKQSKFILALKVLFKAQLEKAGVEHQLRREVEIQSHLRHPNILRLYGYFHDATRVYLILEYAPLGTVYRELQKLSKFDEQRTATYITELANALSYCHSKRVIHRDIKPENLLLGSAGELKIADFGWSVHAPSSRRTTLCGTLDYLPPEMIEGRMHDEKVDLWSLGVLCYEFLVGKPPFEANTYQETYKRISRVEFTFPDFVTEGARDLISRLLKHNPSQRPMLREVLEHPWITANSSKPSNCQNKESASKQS

Structure (SMILES) | IC50 (MCF-7) [nM] | IC50 (SJSA-1) [nM] | IC50 (HCT-116) [nM] | IC50 (U2OS) [nM] | IC50 (all transformed cells; [4]) [nM] | IC50 (all transformed cells; [5]) [nM] | IC50 [1] [nM] | IC50 [2] [nM] | IC50 (PLK-1; [6]) [nM] | IC50 (PLK-1; [7]) [nM] | IC50 (SKUT-1B) [nM] | IC50 (CDK2/cyclin E; [8]) [nM] | IC50 (CDK2/cyclin E; [9]) [nM] | IC50 [3] [nM]
Cc1nc(N)sc1-c1ccnc(Nc2ccc(N3CCOCC3)cc2)n1 [Compound 1, [4-(2-Amino-4-methyl-thiazol-5-yl)-pyrimidin-2-yl]-(4-morpholin-4-yl-phenyl)-amine] | > 5000 | > 5000 | 900 | 2100 | 1100 | 1000 |  |  |  |  |  |  |  | 
CNc1nc(C)c(-c2ccnc(Nc3ccc(N4CCOCC4)cc3)n2)s1 [Compound 3, [4-(2-N-Methylamino-4-methyl-thiazol-5-yl)-pyrimidin-2-yl]-(4-morpholinophenyl)-amine] |  |  |  |  |  |  | > 100000 | 2600 | > 150000 | > 100000 |  |  |  | 
CCNc1nc(C)c(-c2ccnc(Nc3ccc(N4CCOCC4)cc3)n2)s1 [Compound 4, [4-(2-Ethylamino-4-methyl-thiazol-5-yl)-pyrimidin-2-yl]-(4-morpholin-4-yl-phenyl)-amine] |  |  |  |  |  |  |  |  | > 100000 |  |  |  |  | 
CNc1nc(C)c(-c2ccnc(Nc3ccc(N4CCN(Cc5ccccc5)CC4)cc3)n2)s1 [Compound 11, [4-(4-Benzyl-piperazin-1-yl)-phenyl]-[4-(4-methyl-2-methylamino-thiazol-5-yl)-pyrimidin-2-yl]-amine] | 1900 | 4300 | 600 | 2300 | 1600 | 1100 | > 100000 | > 100000 | 19000 | 19000 | 300 | 260 | 260 | 
Cc1nc(NC(=O)[C@H](N)[C@@H](C)O)sc1-c1ccnc(Nc2cccc([N+](=O)[O-])c2)n1 [Compound 15, (2R,3R)-2-Amino-3-hydroxy-N-{4-methyl-5-[2-(3-nitro-phenylamino)-pyrimidin-4-yl]-thiazol-2-yl}-butyramide] | 900 | 1900 | 600 | 1020 | 1200 | 900 | > 100000 | > 100000 | > 150000 | > 100000 | 200 | 130 | 150 | 
CC[C@@H](N)C(=O)Nc1nc(C)c(-c2ccnc(Nc3cccc([N+](=O)[O-])c3)n2)s1 [Compound 16, (2R)-2-Amino-N-{4-methyl-5-[2-(3-nitro-phenylamino)-pyrimidin-4-yl]-thiazol-2-yl}-butyramide] | 390 | 1000 | 300 | 480 | 600 | 400 | > 100000 | 8000 | > 150000 | > 100000 | 100 | 320 | 350 | 2800
Cc1nc(C)c(-c2ccnc(Nc3ccc(NC(=O)CN4CCCC4)cc3)n2)s1 [Compound 53, N-{4-[4-(2,4-Dimethyl-thiazol-5-yl)-pyrimidin-2-ylamino]-phenyl}-2-pyrrolidin-1-yl-acetamide] |  |  |  |  |  |  |  |  |  |  |  | 520 |  | 
